Here are results for four compounds from patent publication US9221800B2, “Isoxazole treatments for diabetes” (The Board of Regents of the University of Texas System, priority 2011, dated 2015).

Assay type in all cases: cell-based, mouse
Experiment [1] deals with MIN6 cells. The experiment in a line: Immunoblotting of MIN6 whole cell lysates. The note with it: MIN6 pretreated with inhibitors 16 h (FIG. 4A); nifedipine in combination with the chelating agent BAPTA. On the procedure:
FIGS. 2[…]-1) activates insulin expression and improves β cell function in MIN6 cells. (FIG. 2A) Dose-response relationship of MIN6 cells treated with 5-80 μM Isx for 24 h or DMSO (0.08%-similar to the highest concentration of Isx). Whole cell lysates (40 μg) were subjected to immunoblotting using antibodies against BETA2NeuroD1, MafA, PDX-1, pERK1/2 (pT183/[…]), acetylated histones […] and ACH3K9 and total histone H3. (FIG. 2B) Quantitative RT-PCR of murine insulin1 and insulin2 gene expression in MIN6 cells treated with Isx for 24 h as in FIG. 2A. […] (FIG. 2D) Insulin content measured by ELISA in MIN6 cells treated with Isx for 24 or 48 h. (FIG. 2E) GSIS induced by glucose, amino acids (AA) and Exendin-4 (Ex-4) singly or in combination in MIN6 cells pretreated with Isx for 48 h. FIGS. 4[…]-1) is a HAT activator. (FIG. 4A) Immunoblots of acetylated histones in MIN6 cells pretreated with the indicated inhibitors for 16 h and then treated with vehicle or Isx. (FIGS. 4B-C) HDAC (FIG. 4B) and HAT (FIG. 4C) activities in 50 μg of nuclear extract protein from MIN6 cells treated with Isx or DMSO for 24 h. Trichostatin A (TSA; 2 μM) was added at as a positive control. HeLa nuclear extract also was included as a positive control. […] Statistical analysis was performed using Student's t test as in FIGS. 1A-E. *P<0.05; **P<0.01. (FIG. 4G) Simplified view of the actions of Isx. FIG. 6. Time course of […]-1) treatment in MIN6 cells. Immunoblotting of whole cell extracts from MIN6 cells grown for 24 h in complete DMEM containing […] and treated with 20 μM Isx for from 15 min to 24 h. The control (0 min) was treated with DMSO for 24 h. MIN6 cells were cultured in DMEM (Gibco), containing 25 mM glucose, 10% fetal bovine serum, 10 mM Hepes pH 7.4, 10.2 mM L-glutamine, […] sodium pyruvate, 2.5 mM β-mercaptoethanol, 100 U/ml penicillin and 100 μg/ml streptomycin at 37° C. in 10% CO2. Human islets were obtained from the ICR Basic Science Islet Distribution and from the University of Alabama, Birmingham Islet Resource Facility and were cultured in RPMI 1640 with 11 mM glucose for up to 1 year. The medium was changed twice weekly and the islets were subcultured when they reached 90% confluence. For Isx treatments, cells were incubated in medium containing either Isx or the equivalent volume of DMSO vehicle (0.04%). To measure GSIS, cells were placed in Krebs-Ringer bicarbonate/Hepes containing 0.1% bovine serum albumin and 2 mM glucose for 2 h, and stimulated for 15 min with 20 mM glucose, a 1× amino-acid mixture (concentrations as in DMEM), or 50 nM Exendin-4.

Experiment [2] deals with HAT. The experiment can be described thus: HAT activity in nuclear extracts of treated MIN6 cells. The note with it: MIN6 cells expressing p300; 10 μM U0126. On the procedure:
(§1) The histone acetyl transferase and deacetylase activities were measured in 50 μg of nuclear protein using the HAT and HDAC activity colorimetric assay kits from Biovision Biotechnology according to manufacturer's recommendations.

Experiment [3] has as its system HDAC. The experiment in a line: HDAC activity in nuclear extracts of treated MIN6 cells. The note with it: 24 h treatment, TSA 2 μM positive control (FIG. 4B). On the procedure:
as §1

As for `COC[C@H]1OC(=O)c2coc3c2[C@@]1(C)C1=C(C3=O)[C@@H]2CCC(=O)[C@@]2(C)C[C@H]1OC(C)=O` [wortmannin, reference compound], in experiment [1], the “effect on Isx-induced acetylation of H4” value is recorded as “no effect”; the “effect on acetylation of H3 on lysines 9 and 14 induced by Isx” value (“effect on acetylation of H3” for short) is recorded as “no effect”.

On to `O=C(NOC[C@H](O)CO)c1ccc(F)c(F)c1Nc1ccc(I)cc1F` [PD325901, reference compound], for which, in experiment [1], the “effect on Isx-induced acetylation of H4” value was “inhibited”; the “effect on acetylation of H3” value is listed as “little effect”.

Take `N#CC(=C(/N)Sc1ccccc1N)/C(C#N)=C(\N)Sc1ccccc1N` [U0126, reference compound]: in experiment [1], the “effect on Isx-induced acetylation of H4” value is reported as “inhibited”; the “effect on acetylation of H3” value is given as “little effect”. Further, the “effect on the Isx-induced increase in HAT activity” value in experiment [2] was “inhibited”.

Take trichostatin A [reference compound]: the “HDAC activity in MIN6 cells” value in experiment [3] is “inhibited”.
